US8952024B2, “Herbicidal pyrimidone derivatives” (E I du Pont de Nemours and Company, priority 2009, dated 2015)

Key:
Assay type in all cases: in vivo
[1] = test system: barnyardgrass (Echinochloa crus-galli); assay: Test B flooded paddy test; details: for Plant response rating, Barnyardgrass: Flood (flooded paddy test), 13 to 15 days
Method in brief: (§1)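 Flooded-pot test: water raised to 3 cm above soil when treating, compound put in the water, level unchanged thereafter. Plants were at 2 leaves. Readout after 13 to 15 days, visual, relative to controls; 0 signifies no effect and 100 complete control.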

[2] = test system: umbrella sedge (Cyperus difformis); assay: Test B flooded paddy test; details: for Plant response rating, Sedge, Umbrella: Flood (flooded paddy test), 13 to 15 days
Method in brief: as §1

[3] = test system: ducksalad (Heteranthera limosa); assay: Test B flooded paddy test; details: for Plant response rating, Ducksalad: Flood (flooded paddy test), 13 to 15 days
Method in brief: as §1

rice (Oryza sativa) = assay: Test B flooded paddy test; details: for Plant response rating, Rice: Flood (flooded paddy test), 13 to 15 days
Method in brief: as §1

[4] = test system: giant foxtail (Setaria faberii); assay: Test A pre-/postemergence plant response
Method in brief: (§2)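 Greenhouse trial, ~10 days. Soil (loam/sand) sprayed preemergence after seeding; emerged plants (1–2 leaf, 2–10 cm) sprayed postemergence in parallel. Response = visual injury vs untreated control, 0–100.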

[5] = test system: velvetleaf (Abutilon theophrasti); assay: Test A pre-/postemergence plant response
Method in brief: as §2

[6] = test system: barnyardgrass (Echinochloa crus-galli); assay: Test A pre-/postemergence plant response
Method in brief: as §2

[7] = test system: large crabgrass (Digitaria sanguinalis); assay: Test A pre-/postemergence plant response
Method in brief: as §2

[8] = test system: pigweed (Amaranthus retroflexus); assay: Test A pre-/postemergence plant response
Method in brief: as §2

[9] = test system: morningglory (Ipomoea spp.); assay: Test A pre-/postemergence plant response
Method in brief: as §2

corn (Zea mays) = assay: Test A pre-/postemergence plant response
Method in brief: as §2

[10] = test system: wheat (Triticum aestivum); assay: Test A pre-/postemergence plant response
Method in brief: as §2

[11] = 250 g ai/ha, flooded paddy test, visual rating on 0 to 100 scale (0 no effect, 100 complete control) after 13 to 15 days
[12] = 62 g ai/ha, scale of 0 to 100 where 0 is no effect and 100 is complete control
[13] = 125 g ai/ha, scale 0 to 100, 0 is no effect, 100 is complete control
[14] = Flood, 31 g ai/ha, scale 0 to 100 (0 no effect, 100 complete control)
[15] = Postemergence, 125 g ai/ha, 0 to 100 scale where 0 is no effect and 100 is complete control
[16] = Postemergence, 500 g ai/ha, visual injury, 0 to 100 scale (0 no effect, 100 complete control), approx. ten days
[17] = Preemergence, 125 g ai/ha, 0 to 100 scale, 0 = no effect, 100 = complete control
[18] = Preemergence, 500 g ai/ha, 0 to 100 scale, 0 = no effect, 100 = complete control

SMILES: COCCCn1c(-c2cccc(F)c2)ncc(C(=O)C2=C(O)C3CCC(C3)C2=O)c1=O (stereo not drawn) [Compound 238]
- Plant response rating, Flood, Barnyardgrass [1, 11]: 40
- Plant response rating, Barnyardgrass [1, 12]: 0
- Plant response rating, Barnyardgrass [1, 13]: 30
- Barnyardgrass plant response rating [1, 14]: 0
- Plant response rating, Flood, Sedge, Umbrella [2, 11]: 80
- Plant response rating, Sedge, Umbrella [2, 12]: 0
- Plant response rating, Sedge, Umbrella [2, 13]: 65
- Sedge, Umbrella plant response rating [2, 14]: 0
- Plant response rating, Flood, Ducksalad [3, 11]: 100
- Plant response rating, Ducksalad [3, 12]: 40
- Plant response rating, Ducksalad [3, 13]: 80
- Ducksalad plant response rating [3, 14]: 0
- Plant response rating, Flood, Rice (rice (Oryza sativa); [11]): 0
- Plant response rating, Rice (rice (Oryza sativa); [12]): 0
- Plant response rating, Rice (rice (Oryza sativa); [13]): 0
- Rice plant response rating (rice (Oryza sativa); [14]): 0
- Plant response rating, Foxtail, Giant [4, 15]: 90
- Foxtail, Giant plant response rating [4, 16]: 100
- Plant response rating, Foxtail, Giant [4, 17]: 50
- Plant response rating, Foxtail, Giant [4, 18]: 90
- Plant response rating, Velvetleaf [5, 15]: 100
- Velvetleaf plant response rating [5, 16]: 100
- Plant response rating, Velvetleaf [5, 17]: 90
- Plant response rating, Velvetleaf [5, 18]: 100
- Plant response rating, Barnyardgrass [6, 15]: 100
- Barnyardgrass plant response rating [6, 16]: 100
- Plant response rating, Barnyardgrass [6, 17]: 70
- Plant response rating, Barnyardgrass [6, 18]: 100
- Plant response rating, Crabgrass, Large [7, 15]: 90
- Crabgrass, Large plant response rating [7, 16]: 100
- Plant response rating, Crabgrass, Large [7, 17]: 90
- Plant response rating, Crabgrass, Large [7, 18]: 100
- Plant response rating, Pigweed [8, 15]: 100
- Pigweed plant response rating [8, 16]: 100
- Plant response rating, Pigweed [8, 17]: 100
- Plant response rating, Pigweed [8, 18]: 100
- Plant response rating, Morningglory [9, 15]: 100
- Morningglory plant response rating [9, 16]: 100
- Plant response rating, Morningglory [9, 17]: 40
- Plant response rating, Morningglory [9, 18]: 90
- Plant response rating, Corn (corn (Zea mays); [15]): 40
- Corn plant response rating (corn (Zea mays); [16]): 80
- Plant response rating, Corn (corn (Zea mays); [17]): 0
- Plant response rating, Corn (corn (Zea mays); [18]): 50
- Plant response rating, Wheat [10, 15]: 50
- Wheat plant response rating [10, 16]: 80
- Plant response rating, Wheat [10, 17]: 0
- Plant response rating, Wheat [10, 18]: 40
